# Data published in US20160339026A1, “TOPICAL COMPOSITIONS COMPRISING MODULATORS OF TRPM8” (Senomyx, Inc., priority 2015, published 2016).
# Like-named read-outs stand apart in the source and are kept apart here.
# Key:
# hTRPM8 [1] = target: T1, hTRPM8 (Homo sapiens, UniProt Q7Z2W7); conditions: Table 1.8; according to WO2011/061330 A2 E Table C 3-14; cited from earlier work
# T1 construct: expressed in transfected cells
# [2] = Sensory study of topically applied Compound 101; format: in vivo, human
# Procedure: The response of subjects to topically applied Compound 101 was assessed. Subjects were exposed to a solid formulation of Compound 101 in small quantities. […] In another assessment, subjects were exposed to a dilute airborne microparticulate Compound 101.
# hTRPM8 [3] = target: T1, hTRPM8; assay: Cell line stably expressing hTRPM8, agonist assay, compounds of Formula (I); format: cell-based; conditions: Table 1.7
# Source text: A mammalian cell line derivative which stably expresses hTRPM8 was used in biological assays in association with testing the present compounds with cool-tasting or -feeling properties (Servant et al. US 2007/0259354 A1 and references cited therein). […] The present compounds have shown strong activity as agonists of hTRPM8. Assay results for compounds are illustrated in Table 1.1 below. Specifically, the Examples listed in Table 1.1, i.e., Compounds A1 to Compounds U10 are the specific compounds above that fall within Formula (I).
# T1 sequence (Q7Z2W7 whole entry): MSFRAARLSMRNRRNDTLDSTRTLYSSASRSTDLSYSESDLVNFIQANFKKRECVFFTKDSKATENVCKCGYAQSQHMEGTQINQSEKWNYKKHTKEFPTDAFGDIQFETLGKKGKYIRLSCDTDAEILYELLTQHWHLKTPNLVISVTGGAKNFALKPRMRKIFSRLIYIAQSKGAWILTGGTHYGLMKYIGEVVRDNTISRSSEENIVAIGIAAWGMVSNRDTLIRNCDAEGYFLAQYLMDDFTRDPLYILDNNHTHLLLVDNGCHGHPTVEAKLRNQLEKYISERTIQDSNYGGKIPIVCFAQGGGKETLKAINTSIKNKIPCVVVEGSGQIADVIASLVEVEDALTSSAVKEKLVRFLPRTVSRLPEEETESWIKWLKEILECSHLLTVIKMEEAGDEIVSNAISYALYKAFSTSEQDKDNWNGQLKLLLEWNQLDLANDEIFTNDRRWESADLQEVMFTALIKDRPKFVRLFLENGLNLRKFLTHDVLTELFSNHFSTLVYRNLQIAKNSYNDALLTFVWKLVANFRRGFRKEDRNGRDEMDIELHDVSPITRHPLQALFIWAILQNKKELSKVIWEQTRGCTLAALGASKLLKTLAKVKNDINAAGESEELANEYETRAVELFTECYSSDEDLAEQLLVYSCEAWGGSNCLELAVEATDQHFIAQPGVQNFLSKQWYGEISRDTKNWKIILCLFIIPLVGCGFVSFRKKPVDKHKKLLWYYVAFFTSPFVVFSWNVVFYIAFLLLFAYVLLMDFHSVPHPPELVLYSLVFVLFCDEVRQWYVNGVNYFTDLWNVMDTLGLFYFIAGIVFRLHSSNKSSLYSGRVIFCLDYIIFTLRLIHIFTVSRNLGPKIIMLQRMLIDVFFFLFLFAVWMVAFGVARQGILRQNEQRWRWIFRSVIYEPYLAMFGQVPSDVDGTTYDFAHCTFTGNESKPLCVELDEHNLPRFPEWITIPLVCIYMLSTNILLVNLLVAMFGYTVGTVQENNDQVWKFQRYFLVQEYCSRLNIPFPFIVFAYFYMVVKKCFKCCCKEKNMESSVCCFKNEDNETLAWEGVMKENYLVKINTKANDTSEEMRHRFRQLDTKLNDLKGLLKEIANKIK
Structure (SMILES),EC50 (hTRPM8 [3]) [µM],EC50 Ratio (WS-3) (hTRPM8 [3]),other results
CCN(Cc1ccccc1)C(=O)C=Cc1ccc2c(c1)OCO2,–,–,EC50 (hTRPM8 [1]): 1.5 µM
Cc1ccc(OCC(=O)N(Cc2cccs2)c2ccn[nH]2)cc1 [Compound 101],–,–,Sensation reported by subjects ([2]; exposure to a solid formulation in small quantities): all subjects reported a “tingling” and “cooling” sensation; Sensation reported by subjects ([2]; exposure to dilute airborne microparticulate compound): exhibited a “cooling smell” and induced “tingling sensation” on the skin
CCN(Cc1ccccc1)C(=O)COc1ccc(C)cc1 [drawing 56 R=4-Me R1=Ethyl Ar=Phenyl],0.776,4.2,–

# Now from value to molecule, other results behind:
EC50 (hTRPM8 [3]) [µM],EC50 Ratio (WS-3) (hTRPM8 [3]),Structure (SMILES),other results
15.6,0.2,O=C(COc1ccc(Br)cc1)N(Cc1ccccc1)c1ccccn1 [drawing 56 R=4-Br R1=2-Pyridyl Ar=Phenyl],–
4.72,0.6,Cc1ccc(OCC(=O)N(Cc2ccccc2)c2ccccn2)cc1 [drawing 56 R=4-Me R1=2-Pyridyl Ar=Phenyl],–
> 100,–,Cc1ccc(OCC(=O)N(C)Cc2ccccc2)cc1 [drawing 56 R=4-Me R1=Methyl Ar=Phenyl],–
9.21,0.5,CCN(Cc1ccccc1)C(=O)COc1ccccc1 [drawing 56 R=H R1=Ethyl Ar=Phenyl],–
